# Patent US20250170050A1, “Use of Nordic plant-based ingredients for supporting a healthy skin microbiome” (Lumene Oy, priority 2022, published 2025)
# Test system: Cutibacterium acnes
# Assay: In vitro growth of C. acnes by OD at 600 nm in kinetic for 49 hours, anaerobic
# Type: cell-based
# Conditions: oat xylitol alone
# Experimental: In the present study, the effects of 4 compounds and 5 combinations were evaluated on the growth of two bacterial strains: Staphylococcus epidermidis (S. epidermidis) and Cutibacterium acnes (C. acnes). The bacterial strains were grown individually, and the growth of each bacterial strain was determined in presence of the compounds or combinations by optical density (OD) measurement at 600 nm in kinetic for 24 hours for S. epidermidis strain and for 49 hours for C. acnes strain to determine a bacterial growth curve. To determine the effect of the test compounds and combinations on the growth of bacteria, bacterial suspensions were transferred in a 96-well plate containing the compounds, the combinations or glucose tested at 0.1% and 1%. Bacterial cultures were incubated at 37° C. under agitation and under anaerobic condition for C. acnes strain. All experimental conditions were performed in n=3. Optical densities at 600 nm (OD600 nm) were then read in kinetic for 24 hours for S. epidermidis strain and 49 hours for C. acnes strain using a microplate spectrophotometer (EPOCH2, BioTek Instruments). Raw data were analysed using GraphPad PRISM software (growth curves).
compound,measurement,value
OC[C@@H](O)[C@H](O)[C@@H](O)CO [Xylitol],growth of C. acnes,inhibits
